According to patent publication US20260209152A1, “Substituted Hydroxystilbene Compounds and Derivatives, Synthesis and Uses Thereof” (Kynan Duke IP, LLC, priority 2019, published 2026):
Like-named read-outs stand apart in the source and are kept apart here.

Assays:
[1] = test system: CCL2 release from IL-4, IL-13, IL-22 and IFN-γ-stimulated primary human keratinocytes; assay: Keratinocyte CCL2 release (LEO Pharma Open Innovation assay number 1280); assay type: cell-based; conditions: for EC50 / Emax: Homo sapiens, Keratinocyte; for Max Eff.: CCL2 (1280): highest effect as percentage of control maximum effect; for Emax: read-out: maximum efficacy, CCL2 secretion
Procedure: Inhibition of CCL2 release from IL-4, IL-13, IL-22 and IFN-γ-stimulated primary human keratinocytes LEO Pharma Open Innovation assay number 1280
The inflammatory skin disease atopic dermatitis (AD) is characterized by the T-cell cytokines including IL-4, IL-13, IL-22 and IFN-γ. In the present assay, keratinocytes are stimulated with a mixture of these cytokines, and the release of CCL2 (also called monocyte chemoattractant protein 1 (MCP-1)) is measured in the culture supernatant by proximity homogenous time-resolved fluorescence (HTRF). […] Compound which inhibit keratinocyte CCL2 secretion may be expected to have efficacy in atopic dermatitis.
HEKa are human epidermal keratinocytes isolated from adult skin. The cells have been cryopreserved at the end of the primary culture stage in a medium containing 10% DMSO. Sterile cell culture work applies.
(§1) • Trypsinize the cells as described above. • Resuspend pellet in 10 ml assay medium (EpiLife Medium with HKGS Kit but without hydrocortisone) • Filter the cells though a 37 µm strainer. • Count cells using a cell counter. • Seed HEKa cells in 384-well view plates 3500 c/w/40 μL. • Place the plates with lids on in a humidity chamber with lid (24.5×24.5 cm box added H2O in the bottom). • Incubate plates over night at 37° C., 5% CO2/95% air
• Prepare compound-containing source plate, i.e. titrations in DMSO to be transferred to the assay plate. • Add 80 nL compounds and controls from the source plate to the assay plate (with cells). • Add 40 μL stimulation (recombinant human interleukin (IL) 4, 13, 22 at 10 ng/mL and Interferon-gamma at 1 ng/mL) in medium with supplement, but without hydrocortisone. • Incubate plates at 37° C., 5% CO2/95% air for 2 days.
• Remove plates from incubation and equilibrate to room temperature for 30 minutes. • Transfer […] supernatant to white proxi 384-well plates for CCL2 detection. • Add […] media to the detection plate. • Add […] CCL2 HTRF detection reagent (to the white proxi 384w). • Seal and incubate for 4 hours and read in a plate reader.
CCL2 concentration in the supernatants is measured using homogeneous time-resolved fluorescence resonance (TR-FRET). The assay is quantified by measuring fluorescence at 665 nm (proportional to CCL2 concentration) and 620 nm (control). A ratio 665/620*1000 is calculated.

[2] = test system: IL-8 release from IL-17A and TNFα-induced primary human keratinocytes; assay: Keratinocyte IL-8 release (assay number 1250); assay type: cell-based; conditions: for EC50 / Emax: Homo sapiens, Keratinocyte; for Max Eff.: IL-8 (1250): highest effect as percentage of control maximum effect; for Emax: read-out: maximum efficacy, IL-8 release
Procedure: Inhibition of IL-8 release from IL-17A and TNFα-induced primary human keratinocytes LEO Pharma Open Innovation assay number 1250 openinnovation.leo-pharma.com
The inflammatory skin disease psoriasis is characterized by cytokines IL-17A and TNFα. In the present assay, primary human keratinocytes are stimulated with a mixture of these cytokines, and the release of IL-8 (also called CXCL8) is measured in the culture supernatant by proximity homogenous time-resolved fluorescence (HTRF).
as §1, with “Detach” for “Trypsinize”, “EpiLife” for “assay medium (EpiLife”, “hydrocortisone” for “hydrocortisone)”, “Human Epidermal Keratinocytes, adult (HEKa)” for “HEKa”, “μL. Use cell media with supplement but without hydrocortisone as assay medium.” for “μL.”, “air.” for “air”
• Prepare compound-containing source plate, i.e. titrations in DMSO to be transferred to the assay plate. • Empty the assay plate, and re-add 25 μL assay medium. • Add 75 nL compounds and controls from the source plate to the assay plate (with cells). • Add 25 μL assay medium and incubate for 2 hours. • Add 25 μL stimulation mix in assay medium (recombinant human interleukin 17A and Tumor necrosis factor-alpha) to give a final concentration of 10 ng/mL of both cytokines. • Incubate plates at 37° C., 5% CO2/95% air for 3 days.
• Remove plates from incubation and equilibrate to room temperature for 30 minutes. • Transfer 2 μL supernatant to white proxi 384-well plates for IL-8 detection. • Add 2 μL assay medium • Prepare IL-8 HTRF mix (according to manufactory protocol) and add 2 μL pr well. • Seal and incubate for 3 hours and read fluorescence in a plate reader.
IL-8 concentration in the supernatant is measured using homogeneous time-resolved fluorescence resonance (TR-FRET). The assay is quantified by measuring fluorescence at 665 nm (proportional to IL8 concentration) and 620 nm (control). A ratio 665/620*1000 is calculated as a representation of the amount of IL-8 in the supernatant.

[3] = half maximal effective concentration relative to control, inhibition of CCL2 release, keratinocytes, read-out: Abs EC50: CCL2 (1280)
[4] = inhibition of IL-8 release, IL-17A and TNFα-induced keratinocytes, read-out: Abs EC50: IL-8 (1250)
[5] = read-out: EC50, inhibition of keratinocyte CCL2 secretion
[6] = read-out: EC50, inhibition of IL-8 release

Row | Structure (SMILES) | EC50 [1, 3] [nM] | Max Eff.: CCL2 (1280) [1] [%] | EC50 [2, 4] [nM] | Max Eff.: IL-8 (1250) [2] [%] | EC50 [1, 5] [nM] | Emax [1] [%] | EC50 [2, 6] [nM] | Emax [2] [%] | reduction of CCL2 release, in words [1] | reduction of IL-8 release, in words [2]
1 | COc1cc(/C=C/c2cc(O)cc(OC)c2CC=C(C)C)ccc1O [Compound 1, (E)-3-(4-hydroxy-3-methoxystyryl)-5-methoxy-4-(3-methylbut-2-en-1-yl)phenol] | 123 | 101 | 80 | 94 | – | – | – | – | – | –
2 | CCOc1cc(O)cc(/C=C/c2ccc(NC(=O)C(=O)O)c(OC)c2)c1CC=C(C)C [Compound 35, (E)-2-((4-(3-Ethoxy-5-hydroxy-2-(3-methylbut-2-en-1-yl)styryl)-2-methoxyphenyl)amino)-2-oxoacetic acid] | 1130 | 79 | 2950 | 77 | – | – | – | – | – | –
3 | COc1cc(/C=C/c2cc(O)cc(OC)c2CC=C(C)C)ccc1NC(=O)CN [Compound 31, (E)-2-amino-N-(4-(5-hydroxy-3-methoxy-2-(3-methylbut-2-en-1-yl)styryl)-2-methoxyphenyl)acetamide] | 445 | 100 | 364 | 105 | – | – | – | – | – | –
4 | CCOc1cc(O)cc(/C=C/c2ccc(O)c(OC)c2)c1CC=C(C)C [Compound 8, (E)-3-Ethoxy-5-(4-hydroxy-3-methoxystyryl)-4-(3-methylbut-2-en-1-yl)phenol] | 50 | 102 | 37 | 107 | – | – | – | – | – | –
5 | CCOc1cc(O)cc(/C=C/c2ccc(O)c(O)c2)c1CC=C(C)C [Compound 20, (E)-4-(3-Ethoxy-5-hydroxy-2-(3-methylbut-2-en-1-yl)styryl)benzene-1,2-diol] | 108 | 99 | 321 | 93 | – | – | – | – | – | –
6 | COc1cc(/C=C/c2cc(O)cc(OC)c2CC=C(C)C)ccc1NC=O [Compound 27, (E)-N-(4-(5-hydroxy-3-methoxy-2-(3-methylbut-2-en-1-yl)styryl)-2-methoxyphenyl)formamide] | 32 | 100 | 46 | 75 | 32 | 100 | 46 | 75 | – | –
7 | CCOc1cc(O)cc(/C=C/c2ccc(NC=O)c(OC)c2)c1CC=C(C)C [Compound 28, (E)-N-(4-(3-Ethoxy-5-hydroxy-2-(3-methylbut-2-en-1-yl)styryl)-2-methoxyphenyl)formamide] | 40 | 100 | 44 | 85 | 40 | 100 | 44 | 85 | medium potency reduction of CCL2 release | medium potency reduction of IL-8 release
